Data: publication PMC10279719 (Nature Communications, 2023)

Target: T1, CrkII^NSH3 (Homo sapiens, UniProt P46108)
T1 construct: CrkII^NSH3; UniProt P46108-1, residues 134–191; 8-His tag with TEV protease cleavage site (N); made in house; host or cells: E. coli C41 (DE3)
Test: SPR, PEAK PRM and tandem peptides binding to immobilised CrkII NSH3 domain
Conditions: peptide analyte over amine-coupled CrkII NSH3 (CM5); Biacore S200, HBS-TP pH 7.4, 20 °C; steady-state 1:1 fit; mean ± S.E.M. (N ≥ 3) or SD (N = 2); read-out: SPR KD, CrkII N-SH3
Procedure: SPR binding studies of PEAK PRM peptides to CrkII^NSH3 were performed using a Biacore S200 Instrument (Cytiva). Purified CrkII^NSH3 was diluted to 5 µg ml^−1 in 10 mM sodium acetate pH 4.0 and amine coupled at 25 °C to a Series S CM5 sensor chip, in HBS-N running buffer (20 mM HEPES pH 7.4, 150 mM NaCl) to a final immobilization level of 1100–1400 response units (RU), followed by surface deactivation using 1 M ethanolamine. A blank activation/deactivation was used for the reference surface. Peptide binding studies were performed at 20 °C in HBS-TP running buffer (20 mM HEPES pH 7.4, 150 mM NaCl, 1 mM TCEP, 0.005% (v/v) Tween-P20). […] Peptide stocks were further diluted to in running buffer to 10 or 20 µM and prepared as a 11-point concentration series (2-fold serial dilution, […] for PEAK PRM peptides, or 20 µM–20 nM for PEAK tandem motif peptides). Samples were injected in a multi-cycle run (flow rate 30 µl min^−1, contact time of 60 s, dissociation 120 s) without regeneration. Sensorgrams were double referenced, and steady-state binding data fitted using a 1:1 binding model using Biacore S200 Evaluation Software (Cytiva, v. 1.1).

T1 sequence (P46108 134-191): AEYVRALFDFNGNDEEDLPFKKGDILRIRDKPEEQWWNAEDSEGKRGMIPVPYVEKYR

Work on `CC[C@H](C)[C@H](NC(=O)[C@H](CCCCN)NC(=O)[C@H](CCCCN)NC(=O)[C@@H]1CCCN1C(=O)[C@H](CC(C)C)NC(=O)[C@@H]1CCCN1C(=O)[C@@H]1CCCN1C(=O)[C@@H]1CCCN1C(=O)[C@H](CC(C)C)NC(=O)[C@@H]1CCCN1C(C)=O)C(=O)N[C@@H](CC(C)C)C(=O)N[C@H](C(=O)N[C@@H](CCCNC(=N)N)C(=O)N[C@H](C(=O)N[C@@H](CCC(N)=O)C(=O)N[C@@H](CO)C(=O)N[C@@H](CC(C)C)C(=O)N1CCC[C@H]1C(=O)N[C@H](C(=O)N[C@@H](CCCNC(=N)N)C(=O)N[C@@H](CCCNC(=N)N)C(N)=O)[C@@H](C)O)[C@@H](C)O)[C@@H](C)O` (single isomer, unassigned) [PEAK3^tandem] yielded a Kd of 600 ± 20 nM.
